Data taken from patent publication US20260174784A1, “Molecular Signatures that Predict Risk for Development of Hepatic Encephalopathy” (The Regents of the University of California, priority 2022, published 2026).

How the values were obtained:
hepatic encephalopathy = assay: HE treatment of readmitted TIPS participant 11_a (case course); type: in vivo, human; conditions: for response to HE treatment: first readmission 9 days post-TIPS, lactulose and rifaximin given together
Excerpt: After the data were collected, the hospital courses of the two participants who were readmitted during the study period were examined. Participant 11_a (FIG. 6C) was a person with a history of cryptogenic cirrhosis with banded esophageal varices but with no prior history of HE. They underwent TIPS procedure due to progressively worsening ascites refractory to diuretic therapy and need for intermittent paracentesis. They were readmitted to the medical intensive care unit 9 days post-TIPS with obtundation requiring intubation for airway protection. Blood was drawn on the day of admission before initiation of hepatic encephalopathy treatment (pre-HET) (FIG. 6C). […] Blood was collected for analysis on the day after treatment initiation (post-HET) (FIG. 6C). They were discharged 9 days later. However, they were readmitted within 72 hours for altered mental status. […] Their encephalopathy resolved after continuous polyethylene glycol infusion via nasojejunal tube, but was again admitted 352 days post-TIPS for HE in the setting of urosepsis.

[1] = biological target: T1, farnesoid X receptor (FXR) (Homo sapiens, UniProt Q96RI1); conditions: ligand-mediated nuclear receptor; literature ref 48; cited from earlier work
T1 sequence (Q96RI1 1-486): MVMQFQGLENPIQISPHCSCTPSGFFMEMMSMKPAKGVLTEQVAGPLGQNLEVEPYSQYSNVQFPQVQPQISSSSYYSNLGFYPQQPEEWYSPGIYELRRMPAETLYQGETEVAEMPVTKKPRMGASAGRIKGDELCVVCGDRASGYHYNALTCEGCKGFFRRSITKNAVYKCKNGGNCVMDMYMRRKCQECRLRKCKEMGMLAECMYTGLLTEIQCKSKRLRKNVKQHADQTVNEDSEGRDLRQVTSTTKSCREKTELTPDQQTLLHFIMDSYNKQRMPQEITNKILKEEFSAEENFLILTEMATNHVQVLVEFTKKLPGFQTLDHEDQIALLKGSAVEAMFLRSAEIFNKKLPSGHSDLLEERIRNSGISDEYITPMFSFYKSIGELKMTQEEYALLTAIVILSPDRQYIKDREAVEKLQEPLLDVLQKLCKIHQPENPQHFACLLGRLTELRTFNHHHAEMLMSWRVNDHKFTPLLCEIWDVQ

[2] = tested on: neuronal oxidative damage induced by bilirubin; conditions: supplementation with GUDCA; previous studies in animal models; cited from earlier work

## OC[C@H]1O[C@@H](O[C@@H]2[C@@H](CO)OC(O)(CO)[C@H]2O)[C@H](O)[C@@H](O)[C@H]1O (mixture of isomers) [lactulose]
Hepatic encephalopathy
  response to HE treatment: responded well

## C[C@H](CCC(=O)NCC(=O)O)[C@H]1CC[C@H]2[C@@H]3[C@@H](O)C[C@@H]4C[C@H](O)CC[C@]4(C)[C@H]3CC[C@]12C [GUDCA, glycoursodeoxycholic acid]
[1]
  effect on farnesoid X receptor (FXR): directly inhibited
[2]
  neuronal oxidative damage induced by bilirubin: can be inhibited

## CO[C@H]1/C=C/O[C@@]2(C)Oc3c(C)c(O)c4c(O)c(c5c(nc6cc(C)ccn65)c4c3C2=O)NC(=O)/C(C)=C\C=C\[C@H](C)[C@H](O)[C@@H](C)[C@@H](O)[C@@H](C)[C@H](OC(C)=O)[C@@H]1C [rifaximin]
Hepatic encephalopathy
  response to HE treatment: responded well

## polyethylene glycol
Hepatic encephalopathy; second readmission, continuous infusion via nasojejunal tube
  encephalopathy outcome: resolved
